Data: US7332489B2, “Methods and compositions of novel triazine compounds” (Reddy US Therapeutics, Inc., priority 2003, dated 2008)
Like-named read-outs stand apart in the source and are kept apart here.

Test system: TNF-α induced IL-6
Assay: TNF-α-induced IL-6 production determined by IL-6 ELISA
Format: cell-based
Conditions: for inhibition at 10 µM: read-out: Inflammation Data, inhibition at 10 uM; for Inflammation Data (result in words): concentration not given; for activity at 10 µM: class = % of control IL6 production
Description: Human aortic endothelial cells (HAEC, Clonetics) were cultured according to manufacturer in growth medium (Clonetics): basal medium containing human epidermal growth factor, hydrocortisone, vascular endothelial growth factor, heparin binding growth factor-B, long R3-insulin-like growth factor-1, ascorbic acid, gentamicin/amphotericin and 5% FBS. These cell were allowed to reach at least 90% confluency before subjected to experimental treatments. […] Tumor necrosis factor α was from R&D Systems.
All treatments, compound-added and controls were carried out in serum free media containing 0.2% albumin. Media from all conditions were collected and used for IL-6 ELISA.
IL-6 ELISA was carried out using human IL-6 DuoSet ELISA development kit as described by manufacturer (R&D Systems). Mouse anti-human Il-6 was used as the capture antibody (2 ug/ml) and biotinylated goat anti-human IL-6 (200 ng/ml) was used as the detection antibody. Culture media were incubated with capture antibody (in 96 well) for 2 h at room temperature. Wells were washed three times with wash buffer (0.05% tween-20 in phosphate buffered saline (PBS) pH 7.4) followed by incubation with detection antibody for 2 h at room temperature. Following three washes wells were incubated with Streptavidin-HRP for 20 min. Color development was read at 450 nm in a Microplate reader.

[1] = Homo sapiens, 24 h, Table 5, second part, column 1, read-out: Inhibition of TNF-induced IL6, production
[2] = Homo sapiens, 24 h, Table 5, first part, read-out: Inhibition of TNF-induced IL6 production

## COc1ccc(Nc2nc(NC3CCCCCC3)nc(OC3CCCNC3)n2)cc1Cl (stereo not shown)
10 uM
  Inflammation Data, cell death at 10 uM: 20%
Homo sapiens, 10 uM
  inhibition at 10 µM: 60%

## COc1ccc(Nc2nc(NC3CCCCCC3)nc(OC3CCNCC3)n2)cc1Cl
10 uM
  Inflammation Data, cell death at 10 uM: 20%

## COc1ccc(Nc2nc(NC3CCCCCC3)nc(OCC3CCCN3C)n2)cc1Cl (stereo not shown)
10 uM
  Inflammation Data, cell death at 10 uM: total cell death
  Inflammation Data, inhibition at 10 uM: complete inhibition

## COc1ccc(Nc2nc(NC3CCCCCC3)nc(OCCOc3ccccc3F)n2)cc1Cl
  Inflammation Data (result in words): Not Active

## COc1ccc(Nc2nc(NC3CCCCCC3)nc(OCc3cccc(C)n3)n2)cc1Cl
Homo sapiens, 10 uM
  inhibition at 10 µM: 60%

## CN(c1nc(Nc2ccc(O)cc2)nc(NC2CCCCCC2)n1)C1CCNCC1
Homo sapiens, read-out: Inflammation Data, inhibition at 5 uM
  inhibition at 5 µM: 50%
human, 24 h, 5 µM
  Inflammation Data, cell death at 5 uM: 20%
human, 24 h, 10 µM
  Inflammation Data, cell death at 10 uM: total cell death

## COc1ccc(Nc2nc(NC3CCCCCC3)nc(NC3CCNCC3)n2)cc1
5 uM
  Inflammation Data, cell death at 5 uM: 20%
10 uM
  Inflammation Data, cell death at 10 uM: > 50%

## COc1ccc(Nc2nc(NC3CC3)nc(N(C)C3CCN(C)CC3)n2)cc1Cl
10 uM
  Inflammation Data, cell death at 10 uM: 15%
  Inflammation Data (result in words): Not active

## CCN1CCCC1CNc1nc(Nc2ccc3ncccc3c2)nc(NC2CCCCCC2)n1 (stereo not shown) [Compound 4, N^2-cycloheptyl-N^4-[(1-ethyl-2-pyrrolidinyl)methyl]-N^6-(6-quinolinyl)-1,3,5-triazine-2,4,6-triamine]
[1]
  activity at 10 µM: 0 to 25%

## CCN1CCCC1CNc1nc(Nc2ccc(F)cc2)nc(NC2CCCCCC2)n1 (stereo not shown) [Compound 10, N^2-cycloheptyl-N^4-[(1-ethyl-2-pyrrolidinyl)methyl]-N^6-(4-fluorophenyl)-1,3,5-triazine-2,4,6-triamine]
[1]
  activity at 10 µM: 0 to 25%

## CCN1CCCC1CNc1nc(Nc2ccc(C#N)cc2)nc(NC2CCCCCC2)n1 (stereo not shown) [Compound 11, 4-[(4-(cycloheptylamino)-6-{[(1-ethyl-2-pyrrolidinyl)methyl]amino}-1,3,5-triazin-2-yl)-amino]benzonitrile]
[1]
  activity at 10 µM: 0 to 25%

## CCN1CCCC1CNc1nc(Nc2ccc3c(c2)OCCO3)nc(NC2CCCCCC2)n1 (stereo not shown) [Compound 24, N^2-cycloheptyl-N^4-(2,3-dihydro-1,4-benzodioxin-6-yl)-N^6-[(1-ethyl-2-pyrrolidinyl)methyl]-1,3,5-triazine-2,4,6-triamine]
[1]
  activity at 10 µM: 0 to 25%

## CCN1CCCC1CNc1nc(Nc2ccc(N(C)C)cc2)nc(NC2CCCCCC2)n1 (stereo not shown) [Compound 25, N^2-cycloheptyl-N^4-[4-(dimethylamino)phenyl]-N^6-[(1-ethyl-2-pyrrolidinyl)methyl]-1,3,5-triazine-2,4,6-triamine]
[1]
  activity at 10 µM: 0 to 25%

## CCN(CC)c1ccc(Nc2nc(NCC3CCCN3CC)nc(NC3CCCCCC3)n2)cc1Cl (stereo not shown) [Compound 26, N^2-[3-chloro-4-(diethylamino)phenyl]-N^4-cycloheptyl-N^6-[(1-ethyl-2-pyrrolidinyl)methyl]-1,3,5-triazine-2,4,6-triamine]
HAEC, 10 uM compound, seen in the TNF IL6 test
  cells floating: > 50%
[2]
  activity at 10 µM: 0 to 25%

## CCN1CCCC1CNc1nc(Nc2ccc(N3CCOCC3)cc2)nc(NC2CCCCCC2)n1 (stereo not shown) [Compound 27, N^2-cycloheptyl-N^4-[(1-ethyl-2-pyrrolidinyl)methyl]-N^6-[4-(4-morpholinyl)phenyl]-1,3,5-triazine-2,4,6-triamine]
[2]
  activity at 10 µM: 0 to 25%
[1]
  activity at 10 µM: 0 to 25%

## CCN1CCCC1CNc1nc(Nc2ccc(N3CCN(C)CC3)cc2)nc(NC2CCCCCC2)n1 (stereo not shown) [Compound 28, N^2-cycloheptyl-N^4-[(1-ethyl-2-pyrrolidinyl)methyl]-N^6-[4-(4-methyl-1-piperazinyl)phenyl]-1,3,5-triazine-2,4,6-triamine]
[2]
  activity at 10 µM: 0 to 25%

## CCN1CCCC1CNc1nc(Nc2ccc(NC(C)=O)cc2)nc(NC2CCCCCC2)n1 (stereo not shown) [Compound 29, N-{4-[(4-(cycloheptylamino)-6-{[(1-ethyl-2-pyrrolidinyl)methyl]amino}-1,3,5-triazin-2-yl)-amino]phenyl}acetamide]
[2]
  activity at 10 µM: 0 to 25%
[1]
  activity at 10 µM: 0 to 25%

## CCN1CCCC1CNc1nc(Nc2cccc(NC(C)=O)c2)nc(NC2CCCCCC2)n1 (stereo not shown) [Compound 30, N-{3-[(4-(cycloheptylamino)-6-{[(1-ethyl-2-pyrrolidinyl)methyl]amino}-1,3,5-triazin-2-yl)-amino]phenyl}acetamide]
[2]
  activity at 10 µM: 0 to 25%
[1]
  activity at 10 µM: 0 to 25%

## CCOc1ccc(Nc2nc(NCC3CCCN3CC)nc(NC3CCCCCC3)n2)cc1 (stereo not shown) [Compound 32, N^2-cycloheptyl-N^4-(4-ethoxyphenyl)-N^6-[(1-ethyl-2-pyrrolidinyl)methyl]-1,3,5-triazine-2,4,6-triamine]
[1]
  activity at 10 µM: 0 to 25%

## CCN1CCCC1CNc1nc(Nc2ccccn2)nc(NC2CCCCCC2)n1 (stereo not shown) [Compound 34, N^2-cycloheptyl-N^4-[(1-ethyl-2-pyrrolidinyl)methyl]-N^6-(2-pyridinyl)-1,3,5-triazine-2,4,6-triamine]
[2]
  activity at 10 µM: 0 to 25%
[1]
  activity at 10 µM: 0 to 25%

## CCN1CCCC1CNc1nc(Nc2ccccc2C)nc(NC2CCCCCC2)n1 (stereo not shown) [Compound 35, N^2-cycloheptyl-N^4-[(1-ethyl-2-pyrrolidinyl)methyl]-N^6-(2-methylphenyl)-1,3,5-triazine-2,4,6-triamine]
[2]
  activity at 10 µM: 25 to 50%
[1]
  activity at 10 µM: 0 to 25%

## CCN1CCCC1CNc1nc(NC2CCCCCC2)nc(N(C)c2ccc(Cl)cc2)n1 (stereo not shown) [Compound 40, N^2-(4-chlorophenyl)-N^4-cycloheptyl-N^6-[(1-ethyl-2-pyrrolidinyl)methyl]-N^2-methyl-1,3,5-triazine-2,4,6-triamine]
[1]
  activity at 10 µM: 0 to 25%

## CCN1CCCC1CNc1nc(NC2CCCCCC2)nc(N(CCC#N)c2ccccc2)n1 (stereo not shown) [Compound 41, 3-[(4-(cycloheptylamino)-6-{[(1-ethyl-2-pyrrolidinyl)methyl]amino}-1,3,5-triazin-2-yl)-(phenyl)amino]propanenitrile]
[1]
  activity at 10 µM: 0 to 25%

## CCN1CCCC1CNc1nc(NC2CCCCCC2)nc(N(C)c2ccc(OC)cc2)n1 (stereo not shown) [Compound 42, N^2-cycloheptyl-N^4-[(1-ethyl-2-pyrrolidinyl)methyl]-N^6-(4-methoxyphenyl)-N^6-methyl-1,3,5-triazine-2,4,6-triamine]
[2]
  activity at 10 µM: 0 to 25%
[1]
  activity at 10 µM: 0 to 25%

## CCN1CCCC1CNc1nc(NC2CCCCCC2)nc(N(C)c2ccc(F)cc2F)n1 (stereo not shown) [Compound 43, N^2-cycloheptyl-N^4-(2,4-difluorophenyl)-N^6-[(1-ethyl-2-pyrrolidinyl)methyl]-N^4-methyl-1,3,5-triazine-2,4,6-triamine]
[1]
  activity at 10 µM: 0 to 25%

## CCN1CCCC1CNc1nc(NC2CCCCCC2)nc(N(CC#N)c2ccccc2)n1 (stereo not shown) [Compound 44, [(4-(cycloheptylamino)-6-{[(1-ethyl-2-pyrrolidinyl)methyl]amino}-1,3,5-triazin-2-yl)(phenyl)amino]acetonitrile]
[1]
  activity at 10 µM: 0 to 25%

## CCN1CCCC1CNc1nc(NC2CCCCCC2)nc(N(C)c2cccc(Cl)c2)n1 (stereo not shown) [Compound 45, N^2-(3-chlorophenyl)-N^4-cycloheptyl-N^6-[(1-ethyl-2-pyrrolidinyl)methyl]-N^2-methyl-1,3,5-triazine-2,4,6-triamine]
[1]
  activity at 10 µM: 0 to 25%

## CCN1CCCC1CNc1nc(NC2CCCCCC2)nc(N(C)c2ccccc2C(F)(F)F)n1 (stereo not shown) [Compound 46, N^2-cycloheptyl-N^4-[(1-ethyl-2-pyrrolidinyl)methyl]-N^6-methyl-N^6-[2-(trifluoromethyl)phenyl]-1,3,5-triazine-2,4,6-triamine]
[1]
  activity at 10 µM: 0 to 25%

## CCN1CCCC1CNc1nc(Nc2ccc(OC)c(Cl)c2)nc(NC2CCCCCC2)n1 (stereo not shown) [Compound 48, N^2-(3-chloro-4-methoxyphenyl)-N^4-cycloheptyl-N^6-[(1-ethyl-2-pyrrolidinyl)methyl]-1,3,5-triazine-2,4,6-triamine]
[2]
  activity at 10 µM: 25 to 50%

## CCNc1nc(NCC2CCCN2CC)nc(Nc2ccc(OC)c(F)c2)n1 (stereo not shown) [Compound 51, N^2-ethyl-N^4-[(1-ethyl-2-pyrrolidinyl)methyl]-N^6-(3-fluoro-4-methoxyphenyl)-1,3,5-triazine-2,4,6-triamine]
[2]
  activity at 10 µM: 0 to 25%

## CCN1CCCC1CNc1nc(Nc2ccc(OC)c(F)c2)nc(NC(C)(C)C)n1 (stereo not shown) [Compound 52, N^2-(tert-butyl)-N^4-[(1-ethyl-2-pyrrolidinyl)methyl]-N^6-(3-fluoro-4-methoxyphenyl)-1,3,5-triazine-2,4,6-triamine]
[2]
  activity at 10 µM: 0 to 25%
[1]
  activity at 10 µM: 25 to 50%

## CCN1CCCC1CNc1nc(NCc2ccccc2)nc(Nc2ccc(OC)c(F)c2)n1 (stereo not shown) [Compound 53, N^2-benzyl-N^4-[(1-ethyl-2-pyrrolidinyl)methyl]-N^6-(3-fluoro-4-methoxyphenyl)-1,3,5-triazine-2,4,6-triamine]
[2]
  activity at 10 µM: 0 to 25%
[1]
  activity at 10 µM: 25 to 50%

## CCN1CCCC1CNc1nc(Nc2ccc(OC)c(F)c2)nc(NC2CCCCC2)n1 (stereo not shown) [Compound 55, N^2-cyclohexyl-N^4-[(1-ethyl-2-pyrrolidinyl)methyl]-N^6-(3-fluoro-4-methoxyphenyl)-1,3,5-triazine-2,4,6-triamine]
[2]
  activity at 10 µM: 0 to 25%

## CCN1CCCC1CNc1nc(Nc2ccc(OC)c(F)c2)nc(NC2CCCC2)n1 (stereo not shown) [Compound 56, N^2-cyclopentyl-N^4-[(1-ethyl-2-pyrrolidinyl)methyl]-N^6-(3-fluoro-4-methoxyphenyl)-1,3,5-triazine-2,4,6-triamine]
[2]
  activity at 10 µM: 0 to 25%
